We go through six compounds from PMC4232510, “Identification of Functionally Important Residues of the Rat P2X4 Receptor by Alanine Scanning Mutagenesis of the Dorsal Fin and Left Flipper Domains” (PLoS ONE, 2014).

Where a chain is given by its changes, count along the chain named. “And” between values parts separate entries of the source, which are not always exact repeats. Equal values may be shown once.

One experiment concerns the target T1, rP2X4R R282A mutant (Rattus norvegicus, UniProt P51577, R282A).
T1 construct: expressed in transfected cells; host or cells: HEK293T
T1 sequence (P51577 1-388 R282A): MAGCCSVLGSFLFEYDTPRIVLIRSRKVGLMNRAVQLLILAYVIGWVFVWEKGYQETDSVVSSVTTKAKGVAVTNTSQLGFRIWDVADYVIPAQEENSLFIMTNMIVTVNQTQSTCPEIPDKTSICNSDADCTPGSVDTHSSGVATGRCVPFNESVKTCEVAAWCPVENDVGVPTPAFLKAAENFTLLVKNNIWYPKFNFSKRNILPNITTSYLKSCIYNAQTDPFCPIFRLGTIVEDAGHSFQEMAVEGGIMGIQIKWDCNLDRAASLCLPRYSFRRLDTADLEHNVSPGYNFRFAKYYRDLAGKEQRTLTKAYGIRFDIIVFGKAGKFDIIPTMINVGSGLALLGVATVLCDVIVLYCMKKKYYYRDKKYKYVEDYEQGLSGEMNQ
Description: whole-cell patch clamp, HEK293T cells expressing mutant. It is filed as cell-based. As to conditions: for relative responsiveness: 100 µM agonist 2 s, relative to ATP (100%).

The target of a further experiment is T2, wild type (WT) rP2X4R (Rattus norvegicus, UniProt P51577).
T2 construct: expressed in transfected cells; host or cells: HEK293T
T2 sequence (P51577 1-388): T1 sequence (P51577 1-388 R282A) with A282R
Description: whole-cell patch clamp, HEK293T cells expressing WT receptor. It is filed as cell-based. As to conditions: for relative responsiveness: 100 µM agonist 2 s, relative to ATP (100%); for EC50: naïve receptors, 2–5 s application. As to the method: To express the recombinant channels, we used human embryonic kidney (HEK) 293T cells (American Type Culture Collection, Rockville, MD, USA) grown in Dulbecco modified Eagle’s medium (Thermo Fisher Scientific, Waltham, MA) supplemented with 10% fetal bovine serum (Sigma-Aldrich, St Louis, MO), 50 U/ml penicillin and 50 µg/ml streptomycin (both Thermo Fisher Scientific, Waltham, MA) in a humidified 5% CO2 and 95% air at 37°C. Cells were cultured in 75 cm^2 plastic culture flasks (NUNC, Rochester, NY) for 36–72 hours until reaching 80–95% confluence. Before the day of transfection, the cells were plated on 35 mm culture dishes (Sarstedt, Newton, NC) and incubated at 37°C for at least 24 h. Transfection was done using 2 µg of either WT or mutant receptor DNA with 2 µl of JetPrime reagent in 2 ml of Dulbecco modified Eagle’s medium, according to manufacturer’s instructions (PolyPlus-transfection, Illkirch, France). Transfected cells were identified by the fluorescence signal of EGFP using the Olympus IX71 inverted research microscope with fluorescence illuminators (Model IX71; Olympus, Melville, NY).
cDNAs encoding the sequences of the rP2X4 and mutated subunits were subcloned into the pIRES2-EGFP vector (Clontech, Mountain View, CA, USA). To generate the mutants, oligonucleotides (synthesized and provided by VBC-Genomics, Vienna, Austria or Sigma Aldrich) containing specific mutagenesis mismatches were introduced into the rP2X4/pIRES2-EGFP template using PfU Ultra DNA polymerase (Thermo Fisher Scientific). A High-Speed Plasmid Mini Kit (Geneaid, Taipei City, Taiwan) was used to isolate the plasmids for transfection. Dye terminator cycle sequencing (ABI PRISM 3100, Applied Biosystems, Foster City, CA) was used to identify and verify the presence of the mutations. The sequencing was performed by the DNA Sequencing Laboratory, Institute of Microbiology, ASCR, Prague.
ATP-induced currents were recorded from whole cells clamped to −60 mV using an Axopatch 200B patch-clamp amplifier (Axon Instruments, Union City, CA). The recordings were captured and stored using the Digidata 1322A and pClamp9 software package (Axon Instruments). During the experiments, the cell culture was perfused with a bath solution containing: 142 mM NaCl, 3 mM KCl, 2 mM CaCl2, 1 mM MgCl2, 10 mM 4-(2-Hydroxyethyl)piperazine-1-ethanesulfonic acid (HEPES) and 10 mM D-glucose, adjusted to pH 7.3 with 1 M NaOH. The patch electrodes were filled with a solution containing: 154 mM CsCl, 11 mM EGTA and 10 mM HEPES, adjusted to pH 7.2 with 1.6 M CsOH. The whole-cell configuration was used to abolish the influence of natively present metabotropic receptors for ATP and we used intracellular cesium to block any kind of possible background potassium conductance. Potency of ATP was measured based on the activation of naïve (not previously stimulated) receptors using a short (2–5 s) application of various concentrations of ATP. The results are expressed as molar concentration of ATP required to produce 50% of the maximal response (EC50). One or two responses were recorded from one cell, if not otherwise stated, and responses from different cells were pooled. The maximum current amplitude (Imax) was measured in response to application of supramaximal concentrations (100–1000 µM) of ATP. Responsiveness to P2XR agonists 2-MeS-ATP, ATPγS, BzATP, and α,β-meATP, all applied in 100 µM concentration, was expressed as percentage of response in comparison to 100 µM ATP treatment for selected mutants. In all mutants, the whole cell currents were also measured in the presence of 3 µM IVM, which was dissolved in dimethyl sulfoxide, stored in stock solutions at 10 mM, and diluted to required concentrations in bath solution in the day of experiment. The control and drug containing solutions were applied via a rapid (exchange time 30–40 ms) perfusion system (RSC-200, BIOLOGIC, Claix, France). All other chemicals are from Sigma-Aldrich. […]

Setting [1] is: 100 µM ATP 60 s, biexponential fit.
Where [2] appears, read: contribution of τdes2, 100 µM ATP 60 s.
[3] abbreviates: decay after removal of 1 or 3 µM ATP, 3 µM IVM.

`Nc1ncnc2c1ncn2C1OC(COP(=O)(O)CP(=O)(O)OP(=O)(O)O)C(O)C1O` (stereo not drawn) [α,β-meATP, α,β-methyleneadenosine 5′-triphosphate]: the relative responsiveness at rP2X4R R282A mutant stood at 27.3±7.9%. Besides, on wild type (WT) rP2X4R, the relative responsiveness was 32% and 31.8±3.3%; the EC50 was determined as 62 ± 18 µM.
`Nc1ncnc2c1ncn2[C@@H]1O[C@H](COP(=O)(O)OP(=O)(O)OP(=O)(O)O)[C@@H](O)[C@H]1O` [ATP]: the “EC50 rightward shift compared to WT” value at rP2X4R R282A mutant is “approximately 10 fold”. Besides, the figures for the τdes1 at rP2X4R R282A mutant (setting [1]) and at wild type (WT) rP2X4R (setting [1]) were 4.0 ± 0.3 s and 1.3 ± 0.2 s, respectively. Besides, the τdes2 at rP2X4R R282A mutant (setting [1]) stood at 14.7 ± 2.0 s; at wild type (WT) rP2X4R (setting [1]), 9.0 ± 0.7 s. Moreover, the Imax at rP2X4R R282A mutant (100–1000 µM ATP) came out at 0.7 ± 0.1 nA; on wild type (WT) rP2X4R (100–1000 µM ATP) it was 2.2 ± 0.2 nA. Besides, the “Imax+IVM” value at rP2X4R R282A mutant (ATP after 3 µM IVM 4-6 min) is listed as 4.5 ± 0.5 nA; at wild type (WT) rP2X4R (ATP after 3 µM IVM 4-6 min), 3.4 ± 0.3 nA. Further, the “A2 /(A1+A2)” value is given as 64 ±14% on rP2X4R R282A mutant (setting [2]) and 63 ± 3% on wild type (WT) rP2X4R (setting [2]). The “τoff +IVM” value is listed as 7.0 ± 0.6 s on rP2X4R R282A mutant (setting [3]) and 21 ± 1.0 s on wild type (WT) rP2X4R (setting [3]). In addition, the EC50 at rP2X4R R282A mutant (naïve receptors, 2–5 s application) turned out to be 23 ± 8 µM; at wild type (WT) rP2X4R, 2.3 ± 0.4 µM. Further, the τdes is 14 ± 1.0 s at rP2X4R R282A mutant (weighted, 100 µM ATP 60 s) and 6.0 ± 0.4 s on wild type (WT) rP2X4R (weighted, 100 µM ATP 60 s). This compound returned a relative responsiveness at wild type (WT) rP2X4R of 100%.
Regarding `CSc1nc(N)c2ncn([C@@H]3O[C@H](COP(=O)(O)OP(=O)(O)OP(=O)(O)O)[C@@H](O)[C@H]3O)c2n1` [2-MeS-ATP, 2-(Methylthio)adenosine 5′-triphosphate], the relative responsiveness on rP2X4R R282A mutant turned out to be 55.1±12.9%. Further, on wild type (WT) rP2X4R, the relative responsiveness is 67% and 67.3±4.6%; the EC50 turned out to be 7.9 ± 1 µM.
As to “2′(3′-O-(4-Benzoylbenzoyl)adenosine 5′-triphosphate [BzATP]”, the relative responsiveness at rP2X4R R282A mutant is 25.7±3.7%; on wild type (WT) rP2X4R, 38% and 38.2±3.4%. Moreover, the EC50 on wild type (WT) rP2X4R amounted to 11.1 ± 2.9 µM.
Take `Nc1ncnc2c1ncn2[C@@H]1O[C@H](CO[P@](=O)(O)O[P@](=O)(O)O[P@@](=O)(O)S)[C@@H](O)[C@H]1O` [ATPγS, Adenosine 5′-(γ-thio)triphosphate]: the relative responsiveness was 45.5±5.2% on rP2X4R R282A mutant; 50% and 49.6±3.5% at wild type (WT) rP2X4R. On wild type (WT) rP2X4R, this compound showed an EC50 of 8.4 ± 1.8 µM.
Consider `CC[C@H](C)[C@H]1O[C@]2(CC[C@@H]1C)C[C@@H]1C[C@@H](C/C=C(\C)[C@@H](O[C@H]3C[C@H](OC)[C@@H](O[C@H]4C[C@H](OC)[C@@H](O)[C@H](C)O4)[C@H](C)O3)[C@@H](C)/C=C/C=C3\CO[C@@H]4[C@H](O)C(C)=C[C@@H](C(=O)O1)[C@]34O)O2` [IVM, ivermectin], for which, at wild type (WT) rP2X4R (3 µM IVM 4-6 min vs IVM-untreated), the “Fold incr. Imax” value is reported as 1.7 ± 0.2 fold.
